Experimental data from publication PMC7129073 (Clinical Microbiology and Infection, 2015).

What was measured:
[1] = test system: Staphylococcus coagulase negative (CNS); test: Susceptibility testing; assay type: cell-based; details: conjunctival isolates 2000–2004
[2] = test system: Haemophilus influenzae; test: Susceptibility testing; assay type: cell-based; details: conjunctival isolates 2000–2004
[3] = test system: Salmonella serotype Typhimurium; test: Disk diffusion, food isolates Spain; assay type: cell-based; details: n = 53
[4] = test system: Streptococcus pneumoniae; test: Susceptibility testing; assay type: cell-based; details: 99 isolates tested
[5] = test system: enterococci; test: Disk diffusion, urine isolates of BPH patients; details: strains isolated post-operatively
[6] = test system: Enterobacter spp; test: E-test susceptibility; assay type: cell-based
[7] = test system: Escherichia coli; test: EARSS Ireland, invasive isolates; assay type: cell-based; details: Jan'01–Jun'04, 2432 isolates
[8] = test system: S. aureus SCVs; test: Resistance of small colony variants from cystic fibrosis patients; assay type: cell-based, Staphylococcus aureus; details: CF patients, Frankfurt 2004
[9] = test system: E. coli; test: Disk diffusion, urine isolates of BPH patients; details: strains isolated after operative intervention
[10] = test system: Staphylococcus aureus; test: EARSS Ireland, invasive isolates; assay type: cell-based
[11] = test system: Salmonella, other 49 serotypes; test: Disk diffusion, food isolates Spain; assay type: cell-based; details: n = 115
[12] = test system: Salmonella serotype Enteritidis; test: Disk diffusion, food isolates Spain; assay type: cell-based; details: n = 96
[13] = test system: Acinetobacter; test: Disk diffusion; assay type: cell-based; details: 37 isolates selected as resistant to beta-lactams
[14] = test system: P. aeruginosa; test: Disk diffusion, urine isolates of BPH patients
[15] = test system: K. pneumoniae; test: MIC; assay type: cell-based, Klebsiella pneumoniae; details: BSAC
[16] = test system: Escherichia coli (ECO); test: Broth microdilution; assay type: cell-based; details: 2001
[17] = test system: biofilms of S. aureus (SA204 and SA195) and S. epidermidis (ATCC35983 and ATCC35984); test: Antibiotic lock, in vitro biofilm on polyurethane film, viable counts; assay type: cell-based, Staphylococcus species; details: any of the time intervals examined
[18] = test system: Shigella spp.; test: Disk diffusion, stool isolates Tehran; assay type: cell-based; details: 96 isolates
[19] = test system: nontyphoidal Salmonella; test: Agar dilution, isolates from chickens 1998–2004; assay type: cell-based, Salmonella spp.
[20] = test system: Staphylococcus aureus; test: Susceptibility testing; assay type: cell-based; details: conjunctival isolates 2000–2004
[21] = test system: E. coli; test: E-test susceptibility; assay type: cell-based, Escherichia coli
[22] = test system: viridans group streptococci (VGS); test: MIC; assay type: cell-based; details: 107 strains
[23] = test system: K. oxytoca; test: E-test susceptibility; assay type: cell-based, Klebsiella oxytoca
[24] = test system: glycopeptide intermediate Staphylococcus species (GISS); test: VITEK II, screening plate and E test, blood isolates; assay type: cell-based, coagulase-negative Staphylococci; details: 73 GISS strains
[25] = test system: C. albicans; test: Antifungal susceptibility; assay type: cell-based, Candida albicans
[26] = test system: C. glabrata; test: Antifungal susceptibility; assay type: cell-based, Candida glabrata
[27] = test system: Pseudomonas aeruginosa (PSA); test: Vitek 2 susceptibility, urine isolates of children; assay type: cell-based; details: both departments
[28] = test system: B.cepacia; test: Italian survey of severe infections 2003, MIC; assay type: cell-based, Burkholderia cepacia
[29] = test system: Klebsiella; test: SMART 2003 Europe, microdilution; assay type: cell-based, Klebsiella spp.; details: 341 isolates
[30] = test system: Gram-negative rods; test: Microscan MIC, blood culture isolates; assay type: cell-based
[31] = test system: E. coli; test: SMART 2003 Europe, microdilution; assay type: cell-based, Escherichia coli; details: 1106 isolates
[32] = test system: Pseudomonas spp.; test: MIC; assay type: cell-based
[33] = test system: E. faecalis; test: E-test susceptibility; assay type: cell-based, Enterococcus faecalis
[34] = test system: A. baumannii; test: Italian survey of severe infections 2003, MIC; assay type: cell-based, Acinetobacter baumannii
[35] = test system: inducible Enterobacteriaceae; test: SMART 2003, intraabdominal isolates; assay type: cell-based
[36] = test system: B. fragilis group; test: NCCLS broth microdilution, beta-lactamase positive isolates; assay type: cell-based, Bacteroides fragilis group; details: 449 isolates
[37] = test system: Enterobacteriaceae; test: SMART 2003 Europe, microdilution; assay type: cell-based; details: 1948 isolates
[38] = test system: H. influenzae; test: Disk diffusion, sputum isolates Athens 2001–2004; assay type: cell-based, Haemophilus influenzae
[39] = test system: H.influenzae; test: PROTEKT Italy, NCCLS microdilution; assay type: cell-based, Haemophilus influenzae
[40] = test system: M. catarrhalis; test: PROTEKT Italy, NCCLS microdilution; assay type: cell-based, Moraxella catarrhalis
[41] = test system: S. maltophilia; test: Susceptibility of respiratory isolates of cancer patients; assay type: cell-based, Stenotrophomonas maltophilia; details: 40 patients
[42] = test system: H. influenzae; assay type: cell-based, Haemophilus influenzae
[43] = UTI under TMP-SMX prophylaxis after renal transplantation; assay type: in vivo, human; details: prophylaxis for 12 months; 104 of 336 patients
[44] = test system: S. pneumoniae; test: Broth microdilution; assay type: cell-based, Streptococcus pneumoniae; details: 275 isolates
[45] = test system: H. influenzae; test: Broth microdilution; assay type: cell-based, Haemophilus influenzae; details: 267 isolates
[46] = test system: Escherichia coli; test: Vitek 2 susceptibility, urine isolates of children; assay type: cell-based
[47] = ICU, SRGA breakpoints, tigecycline tentative S ≤2 μg/ml

CNC(C)C1CCC(N)C(OC2C(N)CC(N)C(OC3OCC(C)(O)C(NC)C3O)C2O)O1 (stereo not drawn) [gentamicin]
resistant isolates [1]: 17.9% | resistant isolates [2]: 1.6% | resistance rate (NCCLS M100-S13) [3]: 4% | resistant isolates [4]: 45.4% | resistance [5]: 66.7% | Susceptible isolates ([6]; ICU): 99% | Susceptible isolates ([6]; non ICU): 100% | resistant isolates [7]: 3.7% | resistance rate of SCV isolates [8]: 46.2% | resistance [9]: 82.7% | resistance amongst MRSA isolates [10]; 1999: 58.4% | resistance amongst MRSA isolates [10]; 2003: 13.1% | resistance rate (NCCLS M100-S13) [11]: 0% | resistance rate (NCCLS M100-S13) [12]: 1% | resistant isolates [13]: 100.0% | resistance [14]: 86.7% | susceptibility category [15]: resistant | susceptible ([16]; NAL-resistant isolates): 68.9% | susceptible ([16]; NAL-susceptible isolates): 91.2% | significant biofilm killing [17]: not achieved | intermediatly resistant [18]: 34% | sensitive [18]: 54% | resistance ([19]; Belgian collection (caecal samples; Belgium, France, Netherlands)): ≤ 1% | resistance ([19]; Germany (carcass meat)): ≤ 1% | resistant isolates [20]: 12% | Susceptible isolates [21, 47]: 98/98% | Susceptible isolates ([21]; non ICU): 98/98% | high-level resistance [22]: 0.9% | Susceptible isolates ([23]; ICU): 100/100% | Susceptible isolates ([23]; non ICU): 100/100% | resistance rate [24]: 87,7%

CC(=O)N1CCN(c2ccc(OCC3COC(Cn4ccnc4)(c4ccc(Cl)cc4Cl)O3)cc2)CC1 (stereo not drawn) [ketokonazole]
intermediate susceptibility [25]: 2% | intermediate susceptibility [26]: 22%

piperacillin/tazobactam
Susceptible isolates [27]: 74-100% | resistance [28]: 7.2% | Susceptible isolates ([6]; ICU): 78% | Susceptible isolates ([6]; non ICU): 93% | per cent susceptible [29]: 85% | susceptible strains (n/N) [30]: 16/16 | resistant isolates [13]: 43.2% | per cent susceptible [31]: 94% | susceptible strains [32]: 92% | Susceptibility ([33]; ICU, SRGA breakpoints, tigecycline tentative ≤2 μg/ml): 99% | Susceptibility ([33]; non-ICU): 100% | susceptible ([16]; NAL-resistant isolates): 85.7% | susceptible ([16]; NAL-susceptible isolates): 94.2% | Susceptible isolates [21, 47]: 98% | Susceptible isolates ([21]; non ICU): 99% | resistance [34]: 13.3% | % susceptible ([35]; A/P (N = 200)): 80% | % susceptible ([35]; EU (N = 354)): 85% | % susceptible ([35]; LA (N=113)): 78% | % susceptible ([35]; NA (N = 163)): 82% | Susceptible isolates ([23]; ICU): 100% | Susceptible isolates ([23]; non ICU): 94% | isolates inhibited at =/< 32 mg/L [36]: > 99% | per cent susceptible [37]: 91%

trimethoprim/sulfamethoxazole
resistance rate ([38]; 2001–2002): 26.9% | resistance rate ([38]; 2003–2004): 13.4% | resistance ([39]; year 1): 13.6% | resistance ([39]; year 2): 14.1% | susceptibility rate ([40]; year 1): 77.3% | susceptibility rate ([40]; year 2): 81.1% | Susceptible isolates [41]: 93% | resistance rate (NCCLS M100-S13) [3]: 19% | resistant [42]: 19% | resistance rate of SCV isolates [8]: All SCV isolates were resistant | patients with UTI within 2 years after transplantation [43]: 31% | Susceptibility [44]: 46.2% | resistance rate (NCCLS M100-S13) [12]: 7% | resistant isolates [13]: 59.5% | susceptible [45]: 54.3% | susceptibility rate ([46]; paediatric surgical unit (PSU)): 35% | susceptibility rate ([46]; paediatric units (PU)): 71% | resistance rate [24]: 38,3%
